# Test results reported in US10766890B2, “Hepatitis B core protein modulators” (Assembly Biosciences, Inc., priority 2015, dated 2020).
# What was measured:
# AD38 cells = experiment: Viability of AD38 cells, Promega CellTiter-Glo; assay type: cell-based; conditions: 10 μM compound, 6 days, CellTiter-Glo luminescence, controls being 100%
# Method: (§1) Example 63: Assay Measuring Activity of Compounds on Viral Production in and on Viability of AD38 Cells
# (§2) AD38 cells were then re-suspended with 10 mL of Treatment Medium and counted. Wells of a collagen coated 96-well NUNC microtiter plate were seeded at 50,000/well in 180 μL of Treatment Medium, and 20 μL of in treatment media with either 10% DMSO (Control) or a 10× solution of compound in 10% DMSO was added. Plates were incubated for 6 days at 37° C.
# At the end of compound treatment period cell viability was assessed using a Promega CellTiter-Glo protocol. All supernatant was removed the previously treated 96-well microtiter plate, and 50 μL Tetracycline-free treatment medium (DMEM/F12 (1:1), 1×Pen/step (cat#: 30-002-CL, Mediatech, Inc), with 2% FBS, Tet-system approved (cat#: 631106, Clontech), and 1% DMSO was added back to each well. Another 50 μL of CellTiter-Glo reagent solution (Promega, G7573) was then added at room temperature and the contents mixed for 2 minutes on an orbital shaker to induce cell lysis. This was followed by incubation at room temperature for 10 minutes to stabilize the luminescent signal. The luminescence was recorded for 0.2 seconds per well on a Tecan multimode platereader (Infinite M1000 pro). The luminescent signal from each well was normalized against that of untreated (DMSO) control wells. All results in Table 3 were reported with percent viability (with controls being 100%).
# HBV = experiment: Viral load production in AD38 cells, quantitative PCR of the core sequence in supernatant; assay type: cell-based; conditions: 10 μM compound, 6 days at 37° C., supernatant qPCR vs DMSO control; for activity at 10 µM: Hepatitis B virus, 144 h, read-out: AD38 Viral Load (%) (VL with cmpd/VL in DMSO control) at 10 μM
# Method: as §1, §2
# Viral load production was assayed by quantitative PCR of the core sequence. […] The PCR mixture was incubated at 45° C. for 5 minutes, then 95° C. for 10 min, followed by 40 cycles of 10 seconds at 95° C. and 20 seconds at 60° C. Viral load was quantitated against known standards by using ViiA™ 7 Software. Viral load in the supernatant from wells with treated cells were compared against viral load in supernatant from DMSO control wells (≥3 per plate).
Molecule,AD38 Viability Normalized Result (cmpd/DMSO %) at 10 μM (AD38 cells) [%],activity at 10 µM (HBV) [%],AD38 Viral Load (%) (VL with cmpd/VL in DMSO control) at 10 μM (HBV)
O=C(NCc1ccc(-c2ccccc2)cc1)c1ccc2c(c1)NC(=O)c1ccccc1S2(=O)=O [Compound 563],59,0.9,
O=C(NCc1cccc(-c2ccc(O)cc2)c1)c1ccc2c(c1)NC(=O)c1ccccc1S2(=O)=O [Compound 773],87,0.6,
O=C(NCc1ccc(-c2ccc(F)cc2)cc1)c1ccc2c(c1)NC(=O)c1ccccc1S2(=O)=O [Compound 564],29,0.9,
O=C(NCc1ccc(-c2cn(Cc3ccccc3)nn2)cc1)c1ccc2c(c1)NC(=O)c1ccccc1S2(=O)=O [Compound 569-A],97,1.5,
"COc1cccc(Sc2cccc(CNC(=O)c3ccc4c(c3)NC(=O)c3ccccc3O4)c2)c1 [Compound 742-A, N-(3-((3-methoxyphenyl)thio)benzyl)-11-oxo-10,11-dihydrodibenzo[b,f][1,4]oxazepine-8-carboxamide]",107,2.6,
O=C(NCCOc1ccc(F)cc1)c1ccc2c(c1)NC(=O)c1ccccc1S2(=O)=O [Compound 469],100,4.1,
"O=C(NCc1cccc(Sc2cccc(O)c2)c1)c1ccc2c(c1)NC(=O)c1ccccc1O2 [Compound 742, N-(3-((3-hydroxyphenyl)thio)benzyl)-11-oxo-10,11-dihydrodibenzo[b,f][1,4]oxazepine-8-carboxamide]",89,12.7,
O=C(NCCc1ccc(-c2ccccc2)cc1)c1ccc2c(c1)NC(=O)c1ccccc1N2 [Compound 508],103,59.1,
O=C(NCC(c1ccccc1)N1CCCC1)c1ccc2c(c1)NC(=O)c1ccccc1S2(=O)=O (stereo not shown) [Compound 471],103,72.6,
CN(Cc1ccc(-c2ccc(O)cc2)cc1)C(=O)c1ccc2c(c1)NC(=O)c1ccccc1S2(=O)=O [Compound 662],34,20.8,
"COc1cccc(Cc2cccc(CNC(=O)c3ccc4c(c3)NC(=O)c3ccccc3S4(=O)=O)c2)c1 [Compound 808-A, N-(3-(3-methoxybenzyl)benzyl)-11-oxo-10,11-dihydrodibenzo[b,f][1,4]thiazepine-8-carboxamide 5,5-dioxide]",84,1.5,
"O=C(NCc1cccc(Cc2ccc(O)cc2)c1)c1ccc2c(c1)NC(=O)c1ccccc1S2(=O)=O [Compound 809, N-(3-(4-hydroxybenzyl)benzyl)-11-oxo-10,11-dihydrodibenzo[b,f][1,4]thiazepine-8-carboxamide 5,5-dioxide]",77,1.1,
"N#Cc1ccc(-c2ccc(CNC(=O)c3ccc4c(c3)NC(=O)c3ccccc3S4(=O)=O)cc2)cc1 [Compound 652-A, N-((4′-cyano-[1,1′-biphenyl]-4-yl)methyl)-11-oxo-10,11-dihydrodibenzo[b,f][1,4]thiazepine-8-carboxamide 5,5-dioxide]",36,4.6,
"O=C(NCc1cccc(Sc2cccc(O)c2)c1)c1ccc2c(c1)NC(=O)c1ccccc1S2(=O)=O [Compound 812, N-(3-((3-hydroxyphenyl)thio)benzyl)-11-oxo-10,11-dihydrodibenzo[b,f][1,4]thiazepine-8-carboxamide 5,5-dioxide]",99,5.1,
"O=C(NCc1ccc(-c2ccc(O)nc2)cc1)c1ccc2c(c1)NC(=O)c1ccccc1S2(=O)=O [Compound 776, N-(4-(6-hydroxypyridin-3-yl)benzyl)-11-oxo-10,11-dihydrodibenzo[b,f][1,4]thiazepine-8-carboxamide 5,5-dioxide]",100,63.1,
CN(C)c1ccc(-c2ccc(CNC(=O)c3ccc4c(c3)NC(=O)c3ccccc3S4(=O)=O)cc2)cc1 [Compound 646],92,6,
"O=C(NCc1cccc(Cc2ccc(O)cc2)c1)c1ccc2c(c1)NC(=O)c1ccccc1O2 [Compound 741, N-(3-(4-hydroxybenzyl)benzyl)-11-oxo-10,11-dihydrodibenzo[b,f][1,4]oxazepine-8-carboxamide]",111,40.1,
COc1ccc(Sc2cccc(CNC(=O)c3ccc4c(c3)NC(=O)c3ccccc3O4)c2)cc1 [Compound 743-A],91,22.7,

Molecule,AD38 Viability Normalized Result (cmpd/DMSO %) at 10 μM (AD38 cells) [%],activity at 10 µM (HBV) [%],AD38 Viral Load (%) (VL with cmpd/VL in DMSO control) at 10 μM (HBV)
O=C(NCc1ccc(-c2ccc3[nH]ncc3c2)cc1)c1ccc2c(c1)NC(=O)c1ccccc1S2(=O)=O [Compound 678],76,1.4,
O=C(NCc1ccc(-c2cccc(O)c2)cc1)c1ccc2c(c1)NC(=O)c1ccccc1O2 [Compound 720],102,48.5,
O=C(NCc1cccc(-n2nccn2)c1)c1ccc2c(c1)NC(=O)c1ccccc1S2(=O)=O [Compound 568],101,3,
CN(C)CCOc1cccc(-c2ccc(CNC(=O)c3ccc4c(c3)NC(=O)c3ccccc3O4)cc2)c1 [Compound 717],0,170,
O=C(NCc1ccc(-c2ccc(O)cc2)cc1)c1ccc2c(c1)NC(=O)c1ccccc1O2 [Compound 719],110,4.6,
Nc1ncc(-c2ccc(CNC(=O)c3ccc4c(c3)NC(=O)c3ccccc3S4(=O)=O)cc2)cn1 [Compound 777],99,11.7,
O=C(NCc1ccc(-c2ccc3[nH]cnc3c2)cc1)c1ccc2c(c1)NC(=O)c1ccccc1O2 [Compound 729],97,16.3,
O=C(NCc1ccc(-c2c[nH]nn2)cc1)c1ccc2c(c1)NC(=O)c1ccccc1S2(=O)=O [Compound 569],100,2.8,
CN1c2ccc(C(=O)NCCc3ccc(S(=O)(=O)N(C)C)cc3)cc2NC(=O)c2ccccc21 [Compound 498],76,13.8,
"11-oxo-N-(4-(4-((2,2,2-trifluoroacetyl)-λ^4-azanyl)butoxy) phenethyl)-10,11-dihydrodibenzo[b, f][1,4]thiazepine-8-carboxamide 5,5-dioxide [Compound 482]",101,,16.3
"COc1ccc(Sc2cccc(CNC(=O)c3ccc4c(c3)NC(=O)c3ccccc3S4(=O)=O)c2)cc1 [Compound 813, N-(3-((4-methoxyphenyl)thio)benzyl)-11-oxo-10,11-dihydrodibenzo[b,f][1,4]thiazepine-8-carboxamide 5,5-dioxide]",44,1.2,
N#Cc1cccc(-c2ccc(CNC(=O)c3ccc4c(c3)NC(=O)c3ccccc3O4)cc2)c1 [Compound 728-A],120,66.8,
"O=C(NCc1cccc(Cc2cccc(O)c2)c1)c1ccc2c(c1)NC(=O)c1ccccc1S2(=O)=O [Compound 808, N-(3-(3-hydroxybenzyl)benzyl)-11-oxo-10,11-dihydrodibenzo[b,f][1,4]thiazepine-8-carboxamide 5,5-dioxide]",90,3,
O=C(NCc1cccc(Cc2cccc(O)c2)c1)c1ccc2c(c1)NC(=O)c1ccccc1O2 [Compound 740],103,23.8,
CCN1c2ccc(C(=O)NCCc3ccc(S(=O)(=O)N(C)C)cc3)cc2NC(=O)c2ccccc21 [Compound 501],91,5.5,
CCC(CNC(=O)c1ccc2c(c1)NC(=O)c1ccccc1S2(=O)=O)c1ccccc1 (stereo not shown) [Compound 530],92,5,
"O=C(NCCc1ccc(-c2cnn[nH]2)cc1)c1ccc2c(c1)NC(=O)c1ccccc1S2(=O)=O [Compound 475, N-(4-(1H-1,2,3-triazol-5-yl)phenethyl)-11-oxo-10,11-dihydrodibenzo[b,f][1,4]thiazepine-8-carboxamide 5,5-dioxide]",96,0.7,
